Assay results taken from US10251395B2, “Substituted furano-/thienocycloalkylamino-2-pyrimidine derivatives and use thereof for controlling undesired plant growth” (Bayer CropScience Aktiengesellschaft, priority 2015, dated 2019).

Experiments:
Abutilon theophrasti [1] = assay: Pre-emergence herbicidal effect; format: in vivo; details: scored visually after 3 weeks
Outline: (§1)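 Using soil-surface application before emergence, the compound was delivered in a water volume equating to 600 to 800 L/ha. Plants grew in a greenhouse for 3 weeks; activity was then rated visually in percent against untreated plants, with 100% for plants killed.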

Alopecurus myosuroides [2] = assay: Pre-emergence herbicidal effect; format: in vivo; details: scored visually after 3 weeks
Outline: as §1

Amaranthus retroflexus [3] = assay: Pre-emergence herbicidal effect; format: in vivo; details: scored visually after 3 weeks
Outline: as §1

Echinochloa crus-galli [4] = assay: Pre-emergence herbicidal effect; format: in vivo; details: scored visually after 3 weeks
Outline: as §1

Matricaria inodora [5] = assay: Pre-emergence herbicidal effect; format: in vivo; details: scored visually after 3 weeks
Outline: as §1

Polygonum convolvulus [6] = assay: Pre-emergence herbicidal effect; format: in vivo; details: scored visually after 3 weeks
Outline: as §1

Setaria viridis [7] = assay: Pre-emergence herbicidal effect; format: in vivo; details: scored visually after 3 weeks
Outline: as §1

Stellaria media [8] = assay: Pre-emergence herbicidal effect; format: in vivo; details: scored visually after 3 weeks
Outline: as §1

Veronica persica [9] = assay: Pre-emergence herbicidal effect; format: in vivo; details: scored visually after 3 weeks
Outline: as §1

Viola tricolor [10] = assay: Pre-emergence herbicidal effect; format: in vivo; details: scored visually after 3 weeks
Outline: as §1

Abutilon theophrasti [11] = assay: Post-emergence herbicidal effect; format: in vivo; details: assessed visually after about 3 weeks vs untreated controls
Outline: (§2)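 Greenhouse post-emergence spray: one-leaf seedlings, sandy loam, aqueous WP/EC formulation with 0.2% wetting agent at 600–800 L/ha. Visual assessment after ~3 weeks, as % activity relative to untreated controls.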

Alopecurus myosuroides [12] = assay: Post-emergence herbicidal effect; format: in vivo; details: 320 g/ha, assessed visually after about 3 weeks vs untreated controls
Outline: as §2

Amaranthus retroflexus [13] = assay: Post-emergence herbicidal effect; format: in vivo; details: assessed visually after about 3 weeks vs untreated controls
Outline: as §2

Avena fatua [14] = assay: Post-emergence herbicidal effect; format: in vivo; details: 320 g/ha, assessed visually after about 3 weeks vs untreated controls
Outline: as §2

Echinochloa crus-galli [15] = assay: Post-emergence herbicidal effect; format: in vivo; details: assessed visually after about 3 weeks vs untreated controls
Outline: as §2

Ipomoea purpurea [16] = assay: Post-emergence herbicidal effect; format: in vivo; details: assessed visually after about 3 weeks vs untreated controls
Outline: as §2

Lolium multiflorum [17] = assay: Post-emergence herbicidal effect; format: in vivo; details: assessed visually after about 3 weeks vs untreated controls
Outline: as §2

Matricaria inodora [18] = assay: Post-emergence herbicidal effect; format: in vivo; details: assessed visually after about 3 weeks vs untreated controls
Outline: as §2

Polygonum convolvulus [19] = assay: Post-emergence herbicidal effect; format: in vivo; details: assessed visually after about 3 weeks vs untreated controls
Outline: as §2

Setaria viridis [20] = assay: Post-emergence herbicidal effect; format: in vivo; details: assessed visually after about 3 weeks vs untreated controls
Outline: as §2

Stellaria media [21] = assay: Post-emergence herbicidal effect; format: in vivo; details: assessed visually after about 3 weeks vs untreated controls
Outline: as §2

Veronica persica [22] = assay: Post-emergence herbicidal effect; format: in vivo; details: assessed visually after about 3 weeks vs untreated controls
Outline: as §2

Viola tricolor [23] = assay: Post-emergence herbicidal effect; format: in vivo; details: assessed visually after about 3 weeks vs untreated controls
Outline: as §2

logP (HCOOH) = format: physicochemical; details: HCOOH
From the text: Table 2 (physicochemical characterization of selected synthesis examples)

Avena fatua [24] = assay: Pre-emergence herbicidal effect; format: in vivo; details: scored visually after 3 weeks
Outline: as §1

Cyperus esculentus = assay: Pre-emergence herbicidal effect; format: in vivo; details: scored visually after 3 weeks
Outline: as §1

Ipomoea purpurea [25] = assay: Pre-emergence herbicidal effect; format: in vivo; details: scored visually after 3 weeks
Outline: as §1

Lolium multiflorum [26] = assay: Pre-emergence herbicidal effect; format: in vivo; details: Dosage 320 g/ha, scored visually after 3 weeks
Outline: as §1

## Cc1cc2c(s1)CC(C)C2Nc1ncc(S(C)(=O)=O)c(N)n1 (racemic) [compound 17]
Abutilon theophrasti [1]; Dosage 80 g/ha
  ABUTH pre-emergence efficacy (herbicidal activity): 80%
Abutilon theophrasti [1]; Dosage 320 g/ha
  ABUTH pre-emergence efficacy (herbicidal activity): 100%
Alopecurus myosuroides [2]; Dosage 320 g/ha
  ALOMY pre-emergence efficacy (herbicidal activity): 100%
Amaranthus retroflexus [3]; Dosage 80 g/ha
  AMARE pre-emergence efficacy (herbicidal activity): 100%
Amaranthus retroflexus [3]; Dosage 320 g/ha
  AMARE pre-emergence efficacy (herbicidal activity): 100%
Echinochloa crus-galli [4]; Dosage 80 g/ha
  ECHCG pre-emergence efficacy (herbicidal activity): 100%
Echinochloa crus-galli [4]; Dosage 320 g/ha
  ECHCG pre-emergence efficacy (herbicidal activity): 100%
Matricaria inodora [5]; Dosage 80 g/ha
  MATIN pre-emergence efficacy (herbicidal activity): 100%
Matricaria inodora [5]; Dosage 320 g/ha
  MATIN pre-emergence efficacy (herbicidal activity): 100%
Polygonum convolvulus [6]; Dosage 320 g/ha
  POLCO pre-emergence efficacy (herbicidal activity): 100%
Setaria viridis [7]; Dosage 80 g/ha
  SETVI pre-emergence efficacy (herbicidal activity): 60%
Setaria viridis [7]; Dosage 320 g/ha
  SETVI pre-emergence efficacy (herbicidal activity): 100%
Stellaria media [8]; Dosage 80 g/ha
  STEME pre-emergence efficacy (herbicidal activity): 100%
Stellaria media [8]; Dosage 320 g/ha
  STEME pre-emergence efficacy (herbicidal activity): 100%
Veronica persica [9]; Dosage 80 g/ha
  VERPE pre-emergence efficacy (herbicidal activity): 100%
Veronica persica [9]; Dosage 320 g/ha
  VERPE pre-emergence efficacy (herbicidal activity): 100%
Viola tricolor [10]; Dosage 80 g/ha
  VIOTR pre-emergence efficacy (herbicidal activity): 100%
Viola tricolor [10]; Dosage 320 g/ha
  VIOTR pre-emergence efficacy (herbicidal activity): 100%
Abutilon theophrasti [11]; 320 g/ha
  post-emergence efficacy ABUTH: 100%
Alopecurus myosuroides [12]
  post-emergence efficacy ALOMY: 90%
Amaranthus retroflexus [13]; 320 g/ha
  post-emergence efficacy AMARE: 100%
Avena fatua [14]
  post-emergence efficacy AVEFA: 100%
Echinochloa crus-galli [15]; 80 g/ha
  post-emergence efficacy ECHCG: 80%
Echinochloa crus-galli [15]; 320 g/ha
  post-emergence efficacy ECHCG: 100%
Ipomoea purpurea [16]; 320 g/ha
  post-emergence efficacy PHBPU: 0%
Lolium multiflorum [17]; 80 g/ha
  post-emergence efficacy LOLMU: 90%
Lolium multiflorum [17]; 320 g/ha
  post-emergence efficacy LOLMU: 100%
Matricaria inodora [18]; 320 g/ha
  post-emergence efficacy MATIN: 80%
Polygonum convolvulus [19]; 80 g/ha
  post-emergence efficacy POLCO: 80%
Polygonum convolvulus [19]; 320 g/ha
  post-emergence efficacy POLCO: 80%
Setaria viridis [20]; 320 g/ha
  post-emergence efficacy SETVI: 100%
Stellaria media [21]; 320 g/ha
  post-emergence efficacy STEME: 100%
Veronica persica [22]; 320 g/ha
  post-emergence efficacy VERPE: 100%
Viola tricolor [23]; 320 g/ha
  post-emergence efficacy VIOTR: 90%
logP (HCOOH)
  logP (HCOOH): oily; logP (HCOOH): 2.11; 1H NMR (CDCl3, 400 MHZ, δ in ppm): 1.30 (d, 3H, 3H of

## Cc1cc2c(s1)CCCC2Nc1nc(N)c(Br)c(C(F)F)n1 (racemic) [compound 284]
Abutilon theophrasti [1]; Dosage 80 g/ha
  ABUTH pre-emergence efficacy (herbicidal activity): 20%
Abutilon theophrasti [1]; Dosage 320 g/ha
  ABUTH pre-emergence efficacy (herbicidal activity): 80%
Alopecurus myosuroides [2]; Dosage 80 g/ha
  ALOMY pre-emergence efficacy (herbicidal activity): 70%
Alopecurus myosuroides [2]; Dosage 320 g/ha
  ALOMY pre-emergence efficacy (herbicidal activity): 80%
Amaranthus retroflexus [3]; Dosage 80 g/ha
  AMARE pre-emergence efficacy (herbicidal activity): 100%
Amaranthus retroflexus [3]; Dosage 320 g/ha
  AMARE pre-emergence efficacy (herbicidal activity): 100%
Avena fatua [24]; Dosage 80 g/ha
  AVEFA pre-emergence efficacy (herbicidal activity): 50%
Avena fatua [24]; Dosage 320 g/ha
  AVEFA pre-emergence efficacy (herbicidal activity): 70%
Cyperus esculentus; Dosage 80 g/ha
  CYPES pre-emergence efficacy (herbicidal activity): 90%
Cyperus esculentus; Dosage 320 g/ha
  CYPES pre-emergence efficacy (herbicidal activity): 100%
Echinochloa crus-galli [4]; Dosage 80 g/ha
  ECHCG pre-emergence efficacy (herbicidal activity): 80%
Echinochloa crus-galli [4]; Dosage 320 g/ha
  ECHCG pre-emergence efficacy (herbicidal activity): 100%
Ipomoea purpurea [25]; Dosage 80 g/ha
  PHBPU pre-emergence efficacy (herbicidal activity): 50%
Ipomoea purpurea [25]; Dosage 320 g/ha
  PHBPU pre-emergence efficacy (herbicidal activity): 50%
Matricaria inodora [5]; Dosage 80 g/ha
  MATIN pre-emergence efficacy (herbicidal activity): 100%
Matricaria inodora [5]; Dosage 320 g/ha
  MATIN pre-emergence efficacy (herbicidal activity): 100%
Polygonum convolvulus [6]; Dosage 80 g/ha
  POLCO pre-emergence efficacy (herbicidal activity): 90%
Polygonum convolvulus [6]; Dosage 320 g/ha
  POLCO pre-emergence efficacy (herbicidal activity): 100%
Setaria viridis [7]; Dosage 80 g/ha
  SETVI pre-emergence efficacy (herbicidal activity): 100%
Setaria viridis [7]; Dosage 320 g/ha
  SETVI pre-emergence efficacy (herbicidal activity): 100%
Viola tricolor [10]; Dosage 80 g/ha
  VIOTR pre-emergence efficacy (herbicidal activity): 100%
Viola tricolor [10]; Dosage 320 g/ha
  VIOTR pre-emergence efficacy (herbicidal activity): 100%
Abutilon theophrasti [11]; 80 g/ha
  post-emergence efficacy ABUTH: 90%
Abutilon theophrasti [11]; 320 g/ha
  post-emergence efficacy ABUTH: 90%
Alopecurus myosuroides [12]
  post-emergence efficacy ALOMY: 100%
Amaranthus retroflexus [13]; 80 g/ha
  post-emergence efficacy AMARE: 80%
Amaranthus retroflexus [13]; 320 g/ha
  post-emergence efficacy AMARE: 80%
Echinochloa crus-galli [15]; 320 g/ha
  post-emergence efficacy ECHCG: 80%
Ipomoea purpurea [16]; 80 g/ha
  post-emergence efficacy PHBPU: 90%
Ipomoea purpurea [16]; 320 g/ha
  post-emergence efficacy PHBPU: 100%
Matricaria inodora [18]; 320 g/ha
  post-emergence efficacy MATIN: 80%
Polygonum convolvulus [19]; 320 g/ha
  post-emergence efficacy POLCO: 100%
Setaria viridis [20]; 80 g/ha
  post-emergence efficacy SETVI: 90%
Setaria viridis [20]; 320 g/ha
  post-emergence efficacy SETVI: 100%
Stellaria media [21]; 80 g/ha
  post-emergence efficacy STEME: 100%
Stellaria media [21]; 320 g/ha
  post-emergence efficacy STEME: 100%
Viola tricolor [23]; 80 g/ha
  post-emergence efficacy VIOTR: 60%
Viola tricolor [23]; 320 g/ha
  post-emergence efficacy VIOTR: 90%

## CS(=O)(=O)c1cnc(N[C@@H]2CCCc3sccc32)nc1N [compound 24]
Abutilon theophrasti [1]; Dosage 320 g/ha
  ABUTH pre-emergence efficacy (herbicidal activity): 100%
Alopecurus myosuroides [2]; Dosage 320 g/ha
  ALOMY pre-emergence efficacy (herbicidal activity): 100%
Amaranthus retroflexus [3]; Dosage 80 g/ha
  AMARE pre-emergence efficacy (herbicidal activity): 100%
Amaranthus retroflexus [3]; Dosage 320 g/ha
  AMARE pre-emergence efficacy (herbicidal activity): 100%
Avena fatua [24]; Dosage 320 g/ha
  AVEFA pre-emergence efficacy (herbicidal activity): 90%
Cyperus esculentus; Dosage 320 g/ha
  CYPES pre-emergence efficacy (herbicidal activity): 60%
Echinochloa crus-galli [4]; Dosage 80 g/ha
  ECHCG pre-emergence efficacy (herbicidal activity): 100%
Echinochloa crus-galli [4]; Dosage 320 g/ha
  ECHCG pre-emergence efficacy (herbicidal activity): 100%
Ipomoea purpurea [25]; Dosage 320 g/ha
  PHBPU pre-emergence efficacy (herbicidal activity): 100%
Lolium multiflorum [26]
  LOLMU pre-emergence efficacy (herbicidal activity): 100%
Matricaria inodora [5]; Dosage 80 g/ha
  MATIN pre-emergence efficacy (herbicidal activity): 100%
Matricaria inodora [5]; Dosage 320 g/ha
  MATIN pre-emergence efficacy (herbicidal activity): 100%
Polygonum convolvulus [6]; Dosage 80 g/ha
  POLCO pre-emergence efficacy (herbicidal activity): 100%
Polygonum convolvulus [6]; Dosage 320 g/ha
  POLCO pre-emergence efficacy (herbicidal activity): 100%
Setaria viridis [7]; Dosage 80 g/ha
  SETVI pre-emergence efficacy (herbicidal activity): 90%
Setaria viridis [7]; Dosage 320 g/ha
  SETVI pre-emergence efficacy (herbicidal activity): 100%
Stellaria media [8]; Dosage 80 g/ha
  STEME pre-emergence efficacy (herbicidal activity): 100%
Stellaria media [8]; Dosage 320 g/ha
  STEME pre-emergence efficacy (herbicidal activity): 100%
Veronica persica [9]; Dosage 80 g/ha
  VERPE pre-emergence efficacy (herbicidal activity): 100%
Veronica persica [9]; Dosage 320 g/ha
  VERPE pre-emergence efficacy (herbicidal activity): 100%
Viola tricolor [10]; Dosage 80 g/ha
  VIOTR pre-emergence efficacy (herbicidal activity): 100%
Viola tricolor [10]; Dosage 320 g/ha
  VIOTR pre-emergence efficacy (herbicidal activity): 100%
Abutilon theophrasti [11]; 80 g/ha
  post-emergence efficacy ABUTH: 100%
Abutilon theophrasti [11]; 320 g/ha
  post-emergence efficacy ABUTH: 100%
Amaranthus retroflexus [13]; 80 g/ha
  post-emergence efficacy AMARE: 90%
Amaranthus retroflexus [13]; 320 g/ha
  post-emergence efficacy AMARE: 90%
Ipomoea purpurea [16]; 80 g/ha
  post-emergence efficacy PHBPU: 80%
Ipomoea purpurea [16]; 320 g/ha
  post-emergence efficacy PHBPU: 100%
Matricaria inodora [18]; 80 g/ha
  post-emergence efficacy MATIN: 80%
Matricaria inodora [18]; 320 g/ha
  post-emergence efficacy MATIN: 100%
Polygonum convolvulus [19]; 320 g/ha
  post-emergence efficacy POLCO: 80%
Setaria viridis [20]; 320 g/ha
  post-emergence efficacy SETVI: 80%
Stellaria media [21]; 80 g/ha
  post-emergence efficacy STEME: 80%
Stellaria media [21]; 320 g/ha
  post-emergence efficacy STEME: 100%
Veronica persica [22]; 80 g/ha
  post-emergence efficacy VERPE: 90%
Veronica persica [22]; 320 g/ha
  post-emergence efficacy VERPE: 100%
Viola tricolor [23]; 80 g/ha
  post-emergence efficacy VIOTR: 90%
Viola tricolor [23]; 320 g/ha
  post-emergence efficacy VIOTR: 100%
logP (HCOOH)
  logP (HCOOH): solid; logP (HCOOH): 1.82; 1H NMR (CDCl3, 400 MHZ, δ in ppm): 1.85 (m, 3H, 3H
